Assay results as given in US10071108B2, “Methods and pharmaceutical compositions for the treatment of hepatitis b virus infection” (INSERM (INSTITUT NATIONAL DE LA SANTÉ ET DE LA RECHERCHE …, priority 2013, dated 2018).
“Also recorded” adds a separate entry of the source.

How the values were obtained:
HBV [1] = assay: Secretion of HBsAg in supernatant of HBV infected HepaRG cells; format: cell-based, hepatitis B virus; conditions: for effect on HBsAg secretion in supernatant: treated days 4, 7 and 11 post infection, supernatant day 14
Excerpt: Differentiated HepaRG cells were infected with HBV (100 geq/cell for 24 hr), then treated 3 successive times (days 4, 7 and 11 post infection) with FXR modulators at indicated concentrations in μM. Cell supernatants were collected 14 days post infection for quantification of HBsAg (Architec Abbott).
(§1) The HepaRG line derived from a human cellularhepato carcinoma can differentiate and regain many phenotypic traits of hepatocytes after 4 weeks of culture under defined conditions (Hantz O. et al., 2009, J Gen Virol, 90:127-135). After differentiation, these cells are susceptible to infection at high MOI of HBV virions produced by HepG2.2.15 line. Under these conditions viral production can be observed in the second week post infection. This system allows the study of most steps of the viral replication cycle, including penetration into the cell, translocation of the viral genome into the nucleus, the repair and synthesis of the cccDNA, transcription of pregenomic and viral mRNAs as well as later stages of the replication cycle with the synthesis of viral proteins, the assembly and secretion of infectious virions and the secretion of the viral proteins HBs and HBe.
(§2) The HepaRG system thus allows the monitoring of the secretion of HBsAg and HBeAg and virion incorporated DNA into the cell culture supernatant after infection with HBV infectious virion stocks prepared from the HepG2.2.15 cell line. This system also allows the monitoring of the synthesis of pregenomic and viral mRNAs as well as cytoplasmic replication intermediates and cccDNA. The effects of molecules on cell physiology and cell differentiated functions were explored, including the quantification of hepatic markers such as albumin and apolipoprotein B. The effects of the compounds on the cellular bile acid pathway were monitored by analysis and quantification of the FXR mRNA as well as the SHP and apoA1 encoding mRNAs the expression of which is under the control of FXR

HBV [2] = assay: Secretion of HBeAg in supernatant of HBV infected HepaRG cells; format: cell-based, hepatitis B virus; conditions: for effect on HBeAg secretion in supernatant: HBV infected HepaRG, treated days 4, 7 and 11 post infection, supernatant day 14
Excerpt: (§3) Cell supernatants were collected 14 days post infection for quantification of HBsAg, HBeAg (Architec Abbott) or HBV DNA by quantitative PCR using rcDNA primers (n=3±SEM). FIG. 2A—Both FXR agonists, GW4064 and 6ECDCA, inhibit the secretion of HBsAg and HBeAg in the supernatant in a dose-dependent manner whereas UDCA and 052EDL133 have no effect on the antigen secretion. FIG. 2B—Both FXR agonists, GW4064 and 6ECDCA, inhibit the secretion of infectious HBV DNA positive viral particles in the supernatant in a dose-dependent manner. […] FIG. 2C—The FXR agonist PXL007 represses HBsAg, HBeAg and HBV DNA in a dose-dependent manner.
as §1, §2

HBV [3] = assay: Secretion of HBV DNA in supernatant of HBV infected HepaRG cells (quantitative PCR); format: cell-based, hepatitis B virus; conditions: for effect on secretion of HBV DNA (virions) in supernatant: supernatant day 14, quantitative PCR
Excerpt: as §3
Differentiated HepaRG cells were infected and treated as described in FIG. 1 legend. Cell supernatants were collected 14 days post infection. (FIG. 8A) Quantification of HBsAg and HBeAg secretion. (FIG. 8B) Quantification of secreted infectious particles by DNA extraction and quantification by qPCR.
as §1, §2

FXR = target: T1, FXR (Homo sapiens, UniProt Q96RI1); assay: Reporter gene under control of the HBV Enh2/core promoter region (two FXR response elements) in Huh-7 cell line; format: cell-based; conditions: data not shown
T1 construct: host or cells: Huh-7
T1 sequence (Q96RI1 1-486): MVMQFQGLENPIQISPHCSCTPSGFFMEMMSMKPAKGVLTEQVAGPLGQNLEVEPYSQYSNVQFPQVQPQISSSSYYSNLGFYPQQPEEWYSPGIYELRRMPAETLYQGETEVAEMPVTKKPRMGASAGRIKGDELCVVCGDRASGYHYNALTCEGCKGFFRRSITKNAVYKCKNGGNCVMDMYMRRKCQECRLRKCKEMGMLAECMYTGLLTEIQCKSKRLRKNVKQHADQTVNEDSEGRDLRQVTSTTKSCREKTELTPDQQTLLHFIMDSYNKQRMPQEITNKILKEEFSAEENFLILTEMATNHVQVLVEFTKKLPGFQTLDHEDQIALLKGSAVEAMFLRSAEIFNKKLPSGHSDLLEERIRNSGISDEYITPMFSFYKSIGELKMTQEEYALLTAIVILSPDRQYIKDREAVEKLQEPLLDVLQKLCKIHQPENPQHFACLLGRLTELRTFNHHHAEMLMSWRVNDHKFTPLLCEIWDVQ
Excerpt: A panel of molecules not previously described and original or reference modulators of FXR activity were first tested on the expression of a reporter gene under the control of the HBV Enh2/core promoter region that contains two FXR response elements in the Huh-7 cell line as described in Ramière C, et al., 2008, J Virol; 82: 10832-10840. Molecules were then classified as FXR agonists or antagonists on the basis respectively of the expression increase or decrease of the reporter gene under the transcription control of FXR. […] Thus some molecules decreased the production of HBsAg in a dose-dependent manner. If the active molecules are classified by their antagonist, agonist or agonist “partial” by the screening test in Huh-7 cell with the reporter gene construct, it appears, against previous odds, that the inhibitory effect on the production of HBsAg grew with the tendency of the molecule to be a potent FXR agonist.

HBV [4] = assay: Expression of HBV core protein (HBc) in infected HepaRG cells, immunofluorescence; format: cell-based, hepatitis B virus; conditions: fixed day 14 post infection, anti-HBc immunofluorescence
Description: Differentiated HepaRG cells grown on coverslips were infected and treated as described in FIG. 1 legend (n=3±SEM). Cells were fixed on day 14 post infection and immunocytochemistry using anti-HBc antibody was carried out.

SHP = SHP mRNA expression in HBV infected HepaRG cells (qPCR); format: cell-based, human; conditions: 10 days treatment
Excerpt: (§4) Differentiated HepaRG cells were infected and treated as described in FIG. 1 legend. Cells were lysed and RNA was extracted, then reverse transcribed into cDNA for qPCR. The expression levels of 3 genes of interest were quantified: FXRα, SHP and APOA1, as well as 3 housekeeping genes for normalization (n=3±SEM). FXR agonists, GW4064 and 6ECDCA, inhibit the expression of FXR mRNA in a dose-dependent manner. SHP and APOA1 are two genes under the regulation of FXR; SHP is induced by FXR while APOA1 is repressed. Here, SHP mRNA expression increases with GW4064 and 6ECDCA treatments, while APOA1 mRNA expression decreases.
as §2

FXRα = assay: FXR mRNA expression in HBV infected HepaRG cells (qPCR); format: cell-based, human; conditions: 10 days treatment
Excerpt: as §4, §2

APOA1 = APOA1 mRNA expression in HBV infected HepaRG cells (qPCR); format: cell-based, human; conditions: 10 days treatment
Excerpt: as §4, §2

HBV [5] = assay: HBV pregenomic/precore mRNA in infected HepaRG cells (qRT-PCR, Northern blot); format: cell-based, hepatitis B virus
Excerpt: Differentiated HepaRG cells were infected and treated as described in FIG. 1 legend. Cells were lysed and RNA was extracted, then either reverse transcribed into cDNA for quantitative PCR (qRT-PCR) (FIG. 4A) or used in Northern Blot experiment (FIG. 4B). The same experiment was repeated and DNA was extracted. Following plasmid-safe DNase treatment, cccDNA expression was quantified by qPCR experiment using specific HBV cccDNA primers and TaqMan probe (n=3±SEM) (FIG. 4C). cccDNA quantification was normalized to the number of βglobin gene. The expression levels of HBV pregenomic gene were quantified, as well as 3 housekeeping genes for normalization (n=3±SEM). […]
as §2, with “This system also allows the monitoring of the synthesis of pregenomic and viral mRNAs as well as cytoplasmic replication intermediates and cccDNA.” left out

[6] = CsA during infection, then FXR agonist

O=C(O)c1cc2c(Cl)c(N3CCN(S(=O)(=O)c4c(Cl)cccc4Cl)CC3)ccc2o1 [PXL007]
effect on HBsAg secretion in supernatant (HBV [1]; HBV infected HepaRG): represses; also recorded: strongly inhibited | effect on HBeAg secretion in supernatant (HBV [2]): represses; also recorded: strongly inhibited | effect on secretion of HBV DNA (virions) in supernatant (HBV [3]): represses; also recorded: strongly inhibited

Nc1ccn([C@@H]2CS[C@H](CO)O2)c(=O)n1 [lamivudine]
reduction of viral DNA secreted in supernatant (HBV [3]; at 10 μM): 97%

O=C(O)c1cc2c(Br)c(N3CCC(NS(=O)(=O)c4c(Cl)cccc4Cl)CC3)ccc2o1 [PXL0743, 4-Bromo-5-[4-(2,6-dichloro-benzenesulfonylamino)-piperidin-1-yl]-benzofuran-2-carboxylic acid]
classification as FXR agonist or antagonist by reporter gene expression (FXR): Partial agonists | effect on HBsAg secretion in supernatant (HBV [1]; HBV infected HepaRG): intermediate profile of inhibition

C[C@H](CCC(=O)O)[C@H]1CC[C@H]2[C@@H]3[C@@H](O)C[C@@H]4C[C@H](O)CC[C@]4(C)[C@H]3CC[C@]12C [UDCA, ursodesoxycholic acid]
effect on HBsAg secretion in supernatant (HBV [1]; HBV infected HepaRG): no effect | effect on HBsAg secretion in supernatant (HBV [1]; HBV infected HepaRG, listed as ursodeoxycholate): did not inhibit | expression of HBc in infected cells (HBV [4]): do not appear to modify; also recorded: did not significantly modify | effect on HBeAg secretion in supernatant (HBV [2]): no effect | effect on HBeAg secretion in supernatant (HBV [2]; listed as ursodeoxycholate): did not inhibit | effect on secretion of HBV DNA (virions) in supernatant (HBV [3]): no or limited effect; also recorded: did not modify

CC(C)c1onc(-c2c(Cl)cccc2Cl)c1COc1ccc(/C=C/c2cccc(C(=O)O)c2)c(Cl)c1 [GW4064]
SHP mRNA expression (SHP): increased | HBsAg secretion, FXR agonist treatment of cells infected in presence of cyclosporin A (HBV [1]; [6]): further reduced | effect on HBsAg secretion in supernatant (HBV [1]; HBV infected HepaRG): inhibit; also recorded: strong and dose dependent inhibitory effect; also recorded: dose dependent and strong inhibitory effect | inhibition of HBsAg secretion (HBV [1]; at 10 μM, HBV infected HepaRG): around 70% | expression of HBc in infected cells (HBV [4]): drastically reduce; also recorded: strongly inhibited | FXR mRNA expression (FXRα): inhibit; also recorded: strongly repressed | APOA1 mRNA expression (APOA1): decreased | HBeAg secretion, FXR agonist treatment of cells infected in presence of cyclosporin A (HBV [2]; [6]): further reduced | effect on HBeAg secretion in supernatant (HBV [2]): inhibit; also recorded: dose dependent and strong inhibitory effect | effect on secretion of HBV DNA (virions) in supernatant (HBV [3]): inhibit | expression of HBV pregenomic/precore mRNA (HBV [5]): inhibit

O=C(O)c1cc2c(Br)c(N3CCCN(S(=O)(=O)c4ccccc4Cl)CC3)ccc2o1 [PXL0914, 4-Bromo-5-[4-(2-chloro-benzenesulfonyl)-[1,4]diazepan-1-yl]-benzofuran-2-carboxylic acid]
classification as FXR agonist or antagonist by reporter gene expression (FXR): Partial agonists | effect on HBsAg secretion in supernatant (HBV [1]; HBV infected HepaRG): intermediate profile of inhibition

Cc1c(N2CCN(C(=O)c3c(Cl)cccc3Cl)CC2)ccc2oc(C(=O)O)cc12 [PXL0924, 5-[4-(2,6-Dichloro-benzoyl)-piperazin-1-yl]-4-methyl-benzofuran-2-carboxylic acid]
classification as FXR agonist or antagonist by reporter gene expression (FXR): Partial agonists | effect on HBsAg secretion in supernatant (HBV [1]; HBV infected HepaRG): intermediate profile of inhibition
